In patent US7811820B2, “Smooth muscle cell differentiation with CRP, SRF and GATA factors” (Baylor College of Medicine, priority 2003, dated 2010):
Entries after “also recorded” stand apart in the source; their conditions may differ.

How the values were obtained:
Format in all cases: cell-based, monkey
SM22α promoter = SM22α promoter luciferase reporter assay in CV1 cells
[1] = system: CRP2 nuclear localization in CV1 cells; assay: Indirect immunofluorescence of V5 epitope-tagged CRP2 localization in transfected CV1 cells; conditions: for CRP2 accumulation in the nucleus: after one hour of treatment; for CRP2 accumulation / localization in the nucleus: summary statement, no concentration given; for Nuclear localization of epitope-tagged CRP2: cytochalasin D 5 μg/ml, latrunculin B not shown
Description: (§1) FIGS. 9A-9B show signaling mechanisms involved in CRP2 nuclear localization. In FIG. 9A, there is indirect immunofluorescent analysis of V5 epitope-tagged CRP2 (green) in CV1 cells. Untreated control CV1 cells show global localization of CRP2. […] Fold-activation was determined by comparison to the transfection with empty expression vector in lane 1.
In CV1 fibroblasts, overexpressed wild type CRP2 localizes both in the nucleus and in the cytoplasmic compartments, similar to the subcellular distribution pattern of endogenous CRP2 (Chang et al., 2003). When NLS- or NES-tag is added, the fusion CRP2-NLS or CRP2-NES protein becomes over 90% nuclear- or cytoplasmic-exclusive localized, respectively (FIG. 8A). These reagents allow functional analyses to differentiate nuclear versus cytoplasmic functions of CRP2. […] Nuclear distribution of CRP2 is coincident with reporter gene activation.
(§2) To elucidate the mechanism controlling CRP2 shuttling, the inventors treated transiently transfected monkey CV1 fibroblasts with drugs that either affect cytoskeletal integrity ([…], cytochalasin D, latrunculin B) or are inhibitors of nuclear export (leptomycin B) and looked for changes in the distribution of CRP2.

SMA promoter = assay: SMA-luciferase reporter transactivation assay in CV1 cells; conditions: CV1 cells cotransfected with CRP2, SRF and GATA6, drug added 12 h after cotransfection, lysates 6-24 h post-drug
actin cytoskeleton = assay: Actin cytoskeleton integrity in CV1 cells (rhodamine phalloidin)
Description: as §1, §2

Q: Which results are given for `C[C@@H](N)[C@H]1CC[C@H](C(=O)Nc2ccncc2)CC1` [Y-27632]?
A: SM22α promoter activity after drug treatment (SM22α promoter): further up-regulated; cells with CRP2 nuclear localization ([1]; 10 μM in growth medium of transfected CV1 fibroblasts): 68%; CRP2 accumulation in the nucleus [1]: accumulate in the nucleus; CRP2 accumulation / localization in the nucleus [1]: facilitated CRP2 nuclear localization; SMA gene activation / SMA-Luc reporter activity after drug treatment (SMA promoter): further upregulates; also recorded: further up-regulated; SMA gene activation / SMA-Luc reporter activity after drug treatment (SMA promoter; listed as Y-26732): increases

Q: What does the source list for `C=C1[C@@H](C)[C@H]2[C@H](Cc3ccccc3)NC(=O)[C@]23[C@H](OC(C)=O)/C=C/[C@@](C)(O)C(=O)[C@@H](C)C/C=C/[C@H]3[C@@H]1O` [cytochalasin D]?
A: dissolution of the actin cytoskeleton (actin cytoskeleton): completely dissolved the actin cytoskeleton within one hour; CRP2 accumulation in the nucleus [1]: accumulate in the nucleus; Nuclear localization of epitope-tagged CRP2 [1]: observed

Q: What does the source list for `C/C1=C/C(=O)O[C@@H]2C[C@@H](CC[C@H](C)/C=C\CC1)O[C@@](O)([C@@H]1CSC(=O)N1)C2` [latrunculin B]?
A: dissolution of the actin cytoskeleton (actin cytoskeleton): completely dissolved the actin cytoskeleton within one hour; Nuclear localization of epitope-tagged CRP2 [1]: observed

Q: How did the “transfected CV1 cells displaying CRP2 accumulation in the nucleus” value ([1]; 2 hr of 10 μg/ml treatment) turn out when `CCC(=C/[C@H](C)C/C=C/C(C)=C/[C@@H](C)C(=O)[C@@H](C)[C@H](O)[C@@H](C)C/C(C)=C/C(=O)O)/C=C/[C@@H]1OC(=O)C=C[C@@H]1C` [leptomycin B] was run?
A: The value was 82%.

Q: And the “CRP2 accumulation in the nucleus” value [1]?
A: Its value is “accumulate in the nucleus”.

Q: What about the “CRP2 accumulation / localization in the nucleus” value [1] of the same molecule?
A: Its value is “induced CRP2 accumulation in the nucleus”.
